For 14 compounds, IC50 results are on record in patent US20180057505A1, “BICYCLIC HETEROARYL COMPOUNDS USEFUL AS INHIBITORS OF THE PAR-2 SIGNALING PATHWAY” (VERTEX PHARMACEUTICALS INCORPORATED, priority 2015, published 2018).

Holding throughout (type): cell-based
The test system of assay [1] is Thrombin-stimulated Ca2+ response in HT-29 cells. Description: Ca FLIPR TETRA assay, ANTAGONIST mode, activator 1 U/mL Thrombin. To be noted: HT-29 cells, activator 1 U/mL Thrombin. How it is done:
(§1) Protocol for Testing PAR2 Compounds in ANTAGONIST Mode Using the Ca FLIPR^TETRA Assay (384 Well).
(§2) 23000 HT-29 cells (ATCC# HTB-38) were plated in 384-well black, transparent-flat bottom plates and incubated in 25 uL of 1% FBS/McCoy's media ON at 37° C. under an atmosphere of 5% CO2. The following day, 25 uL FLIPR calcium 5 Molecular Devices assay reagent (Cat: R-8186) was added. Plates were incubated at 37° C. and r. t. for 45 min and 15 min, respectively. Compounds dilutions were prepared in 100% DMSO using a Biomek FX and diluted 20-fold in HBSS and then 5.5 uL was added directly to the cells by the FLIPR^TETRA (10× dilution) using FLIPR Tetra Pipette tips, black, non-sterile, 384 Molecular Devices (Cat: 9000-0764).
(§3) A first read was performed to determine whether the test compounds on their own can activate Ca^2+ responses. The cells were incubated with the compounds for 30 min at r. t. and then read in ANTAGONIST mode in the same plate by stimulating with 6.2 uL of a fixed concentration of the activator: final concentrations 8 μM SLIGKV, 1 U/mL Thrombin, 3.1 U/mL trypsin, or 0.6 μM UTP.

The target in assay [2] is T1, PAR2 (HT-29 cells) (Homo sapiens, UniProt P55085).
T1 construct: host or cells: HT-29
T1 sequence (P55085 26-397): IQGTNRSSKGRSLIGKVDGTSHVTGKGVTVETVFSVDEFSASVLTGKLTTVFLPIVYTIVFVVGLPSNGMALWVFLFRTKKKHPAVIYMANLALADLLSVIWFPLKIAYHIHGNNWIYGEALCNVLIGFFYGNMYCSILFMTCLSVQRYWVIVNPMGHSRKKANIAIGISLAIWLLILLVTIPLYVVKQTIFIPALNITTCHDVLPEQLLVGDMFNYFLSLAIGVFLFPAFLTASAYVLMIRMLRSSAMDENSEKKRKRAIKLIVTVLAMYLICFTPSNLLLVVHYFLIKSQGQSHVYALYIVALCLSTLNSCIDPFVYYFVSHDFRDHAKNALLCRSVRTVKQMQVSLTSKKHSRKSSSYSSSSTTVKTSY
Description: Ca FLIPR TETRA assay, ANTAGONIST mode, activator 8 μM SLIGKV. The settings on record: HT-29 cells, activator 8 μM SLIGKV; maximal antagonist concentration per Method (A: 0.1, 1 or 2 μM; B: 50 μM). How it is done: as §1, §2, §3

The subject of assay [3] is UTP-stimulated Ca2+ response in HT-29 cells. Description: Ca FLIPR TETRA assay, ANTAGONIST mode, activator 0.6 μM UTP. The settings on record: HT-29 cells, activator 0.6 μM UTP. How it is done:
as §1, §2, §3

Assay [4] addresses T1, PAR2 (HT-29 cells). The experiment in a line: Ca FLIPR TETRA assay, ANTAGONIST mode, activator 3.1 U/mL trypsin. To be noted: HT-29 cells, activator 3.1 U/mL trypsin; maximal antagonist concentration per Method (A: 0.1, 1 or 2 μM; B: 50 μM). How it is done:
as §1, §2, §3

As a reminder, the IC50 is the midpoint of a concentration-inhibition curve. Turning to `CC1(c2cc(-c3ccc(F)cc3)nc3cc(C(=O)N4CCN(C(=O)C5CC5)CC4(C)C)oc23)CC1` [Example I-49], the IC50 in assay [1] (Homo sapiens) was 15000 nM; on PAR2 (HT-29 cells) [2], 5.9 nM; in assay [3] (Homo sapiens), 18000 nM; on PAR2 (HT-29 cells) [4], 12 nM.

For `CC1(c2cc(-c3ccc(F)cc3)nc3cc(C(=O)N4CCN(C(=O)C5C(C)(C)C5(C)C)CC4(C)C)oc23)CC1` [Example I-50], the IC50 in assay [1] (Homo sapiens) is above 50000 nM; at PAR2 (HT-29 cells) [2] it was 4.9 nM; in assay [3] (Homo sapiens) it was above 50000 nM; at PAR2 (HT-29 cells) [4], 5.1 nM.

`CC1(c2cc(-c3ccc(F)cc3)nc3cc(C(=O)N4CCN(C(=O)C5(C#N)CC5)CC4(C)C)oc23)CC1` [Example I-51]: the IC50 in assay [1] (Homo sapiens) was 24000 nM; at PAR2 (HT-29 cells) [2] it was 5.8 nM; in assay [3] (Homo sapiens), above 50000 nM; on PAR2 (HT-29 cells) [4], 5.3 nM.

Consider `CCC(C)(C)C(=O)N1CCN(C(=O)c2cc3nc(-c4ccc(F)cc4)cc(C4(C)CC4)c3o2)C(C)(C)C1` [Example I-52], for which the IC50 in assay [1] (Homo sapiens) is above 50000 nM; on PAR2 (HT-29 cells) [2], 4.2 nM; in assay [3] (Homo sapiens) it was above 50000 nM; at PAR2 (HT-29 cells) [4], 6 nM.

Turning to `CC1(c2cc(-c3ccc(F)cc3)nc3cc(C(=O)N4CCN(C(=O)C5(c6ccc(Cl)cc6)CC5)CC4(C)C)oc23)CC1` [Example I-53], the half-inhibitory concentration (IC50) is above 50000 nM in assay [1] (Homo sapiens), 53 nM at PAR2 (HT-29 cells) [2], above 50000 nM in assay [3] (Homo sapiens) and 74 nM on PAR2 (HT-29 cells) [4].

Consider `CC1(c2cc(-c3ccc(F)cc3)nc3cc(C(=O)N4CCN(C(=O)C5CCOCC5)CC4(C)C)oc23)CC1` [Example I-54], for which the concentration for half-maximal inhibition (IC50) in assay [1] (Homo sapiens) was 9600 nM; on PAR2 (HT-29 cells) [2] it was 4.5 nM; in assay [3] (Homo sapiens), 7900 nM; on PAR2 (HT-29 cells) [4], 6.3 nM.

Regarding `CC1(c2cc(-c3ccc(F)cc3)nc3cc(C(=O)N4CCN(C(=O)C5(C(F)(F)F)CC5)CC4(C)C)oc23)CC1` [Example I-55], the 50% inhibitory concentration (IC50) in assay [1] (Homo sapiens) was 29000 nM; at PAR2 (HT-29 cells) [2] it was 2.8 nM; in assay [3] (Homo sapiens) it was above 33000 nM; on PAR2 (HT-29 cells) [4] it was 4.6 nM.

In the case of `CC1(c2cc(-c3ccc(F)cc3)nc3cc(C(=O)N4CCN(C(=O)C5(O)CCC5)CC4(C)C)oc23)CC1` [Example I-56], the half-maximal inhibitory concentration (IC50) in assay [1] (Homo sapiens) was 9000 nM; on PAR2 (HT-29 cells) [2], 16 nM; in assay [3] (Homo sapiens) it was 5200 nM; on PAR2 (HT-29 cells) [4] it was 31 nM.

As to `CC1(c2cc(-c3ccc(F)cc3)nc3cc(C(=O)N4CCN(C(=O)C5(O)CCOCC5)CC4(C)C)oc23)CC1` [Example I-57], the IC50 in assay [1] (Homo sapiens) worked out at 6800 nM; at PAR2 (HT-29 cells) [2] it was 53 nM; in assay [3] (Homo sapiens), 8600 nM; at PAR2 (HT-29 cells) [4], 77 nM.

`CC1(c2cc(-c3ccc(F)cc3)nc3cc(C(=O)N4CCN(C(=O)C5CC(O)(C(F)(F)F)C5)CC4(C)C)oc23)CC1` (centres unmarked) [Example I-58]: the IC50 in assay [1] (Homo sapiens) worked out at 19000 nM; at PAR2 (HT-29 cells) [2], 0.31 nM; in assay [3] (Homo sapiens), 30000 nM; at PAR2 (HT-29 cells) [4] it was 0.64 nM.

Regarding `CC[C@H](O)C(=O)N1CCN(C(=O)c2cc3nc(-c4ccc(F)cc4)cc(C4(C)CC4)c3o2)C(C)(C)C1` [Example I-59], the IC50 is 15000 nM in assay [1] (Homo sapiens), 21 nM on PAR2 (HT-29 cells) [2], 15000 nM in assay [3] (Homo sapiens) and 49 nM at PAR2 (HT-29 cells) [4].

For `CC1(c2cc(-c3ccc(F)cc3)nc3cc(C(=O)N4CCN(C(=O)C5CCOC5)CC4(C)C)oc23)CC1` (centres unmarked) [Example I-60], the IC50 in assay [1] stood at 14000 nM; on PAR2 (HT-29 cells) [2], 48 nM; in assay [3], 13000 nM; at PAR2 (HT-29 cells) [4] it was 67 nM.

For the compound `CC[C@@H](O)C(=O)N1CCN(C(=O)c2cc3nc(-c4ccc(F)cc4)cc(C(C)C)c3o2)C(C)(C)C1` [Example I-61], the concentration for half-maximal inhibition (IC50) in assay [1] (Homo sapiens) is 17000 nM; at PAR2 (HT-29 cells) [2], 4.8 nM; in assay [3] (Homo sapiens) it was 13000 nM; at PAR2 (HT-29 cells) [4], 11 nM.

For `CC(C)c1cc(-c2ccc(F)cc2)nc2cc(C(=O)N3CCN(C(=O)CC(C)(C)O)CC3(C)C)oc12` [Example I-62], the IC50 in assay [1] (Homo sapiens) is 4700 nM; at PAR2 (HT-29 cells) [2] it was 40 nM; in assay [3] (Homo sapiens) it was 5200 nM; at PAR2 (HT-29 cells) [4], 39 nM.
